Laboratory results published in PubChem BioAssay (NCI).
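Growth conditions: 96-well plates. Treatment: test compound, 48 hours, 5 concentrations. Analysis: linear interpolation between bracketing concentrations; unreached endpoints set to highest concentration. GI50: concentration for 50% inhibition of growth. At the TGI there is no net growth.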

Tests used:
Assay in all cases: NCI anticancer screen, dose series, 48 h
786-0 renal = system: 786-0 renal
SR leukemia = system: SR leukemia
LOX IMVI melanoma = system: LOX IMVI melanoma
HOP-62 NSCLC = system: HOP-62 NSCLC
SK-OV-3 ovarian = system: SK-OV-3 ovarian
NCI-H460 lung = system: NCI-H460 lung
HT29 colon = system: HT29 colon
HCT-15 colon = system: HCT-15 colon
UACC-257 melanoma = system: UACC-257 melanoma
HCT-116 colon = system: HCT-116 colon

Cc1ccc(-n2c3c(c4c(CN)c(O)ccc42)CCc2ccccc2C3=O)cc1
GI50 (786-0 renal): 14.6 µM | TGI (786-0 renal): 28.8 µM | GI50 (SR leukemia): 2.33 µM | TGI (SR leukemia): 5.38 µM | GI50 (LOX IMVI melanoma): 16.3 µM | TGI (LOX IMVI melanoma): 32.2 µM | GI50 (HOP-62 NSCLC): 17.2 µM | TGI (HOP-62 NSCLC): 31.7 µM | GI50 (SK-OV-3 ovarian): 18.1 µM | TGI (SK-OV-3 ovarian): 34.4 µM | GI50 (NCI-H460 lung): 7.33 µM | TGI (NCI-H460 lung): 28.4 µM | GI50 (HT29 colon): 30.3 µM | TGI (HT29 colon): > 100 µM | GI50 (HCT-15 colon): 15.9 µM | TGI (HCT-15 colon): 30.9 µM | GI50 (UACC-257 melanoma): 18 µM | TGI (UACC-257 melanoma): 34.1 µM | GI50 (HCT-116 colon): 9.24 µM | TGI (HCT-116 colon): 21.4 µM

CCOc1ncnc2ccc(Cl)c(I)c12
TGI (786-0 renal): > 100 µM | TGI (SR leukemia): > 100 µM | TGI (LOX IMVI melanoma): > 100 µM | TGI (HOP-62 NSCLC): > 100 µM | TGI (SK-OV-3 ovarian): > 100 µM | TGI (NCI-H460 lung): > 100 µM | TGI (HT29 colon): > 100 µM | TGI (HCT-15 colon): > 100 µM | TGI (UACC-257 melanoma): > 100 µM | TGI (HCT-116 colon): > 100 µM

C[C@@H]1OC(=O)NN=C1c1ccc(-c2ccc(F)cc2)c(C(F)(F)F)c1
GI50 (786-0 renal): 13.7 µM | TGI (786-0 renal): 30.3 µM | GI50 (SR leukemia): 2.58 µM | TGI (SR leukemia): 13 µM | GI50 (LOX IMVI melanoma): 4.78 µM | TGI (LOX IMVI melanoma): 18.8 µM | GI50 (HOP-62 NSCLC): 10.7 µM | TGI (HOP-62 NSCLC): 26.2 µM | GI50 (SK-OV-3 ovarian): 12.6 µM | TGI (SK-OV-3 ovarian): 27.5 µM | GI50 (NCI-H460 lung): 11.7 µM | TGI (NCI-H460 lung): 25.6 µM | GI50 (HT29 colon): 10.3 µM | TGI (HT29 colon): 25.4 µM | GI50 (HCT-15 colon): 4.6 µM | TGI (HCT-15 colon): 17.9 µM | GI50 (UACC-257 melanoma): 3.72 µM | TGI (UACC-257 melanoma): 19.2 µM | GI50 (HCT-116 colon): 5.27 µM | TGI (HCT-116 colon): 20.6 µM

CC(C)(C)C1CCC(=O)C(C(O)CC2CC(=O)N(c3ccccc3)C(=O)C2)C1 (stereo not given)
TGI (786-0 renal): > 100 µM | TGI (SR leukemia): > 100 µM | TGI (LOX IMVI melanoma): > 100 µM | TGI (HOP-62 NSCLC): > 100 µM | TGI (SK-OV-3 ovarian): > 100 µM | TGI (NCI-H460 lung): > 100 µM | TGI (HT29 colon): > 100 µM | TGI (HCT-15 colon): > 100 µM | TGI (UACC-257 melanoma): > 100 µM | TGI (HCT-116 colon): > 100 µM

COC(=O)C1=C(O)c2cc3c(cc2[C@H](c2cc(OC)c(OC)c(OC)c2)C1)OCO3
TGI (786-0 renal): > 100 µM | TGI (SR leukemia): > 100 µM | TGI (LOX IMVI melanoma): > 100 µM | TGI (HOP-62 NSCLC): > 100 µM | TGI (SK-OV-3 ovarian): > 100 µM | TGI (NCI-H460 lung): > 100 µM | TGI (HT29 colon): > 100 µM | TGI (HCT-15 colon): > 100 µM | TGI (UACC-257 melanoma): 95.1 µM | TGI (HCT-116 colon): > 100 µM
